Reference: patent publication US20090318468A1, “PYRAZOLE COMPOUNDS 436” (AstraZeneca AB, priority 2008, published 2009)
Where “and” joins values, the source holds several entries; their conditions need not be identical. Equal values may be shown once.

How the values were obtained:
[1] = Clearance (pharmacokinetics) in rats; assay type: in vivo; conditions: rat, whole blood, male rats, dose 0.927 mg/kg (2 umol/kg); for Vd: read-out: Vss
Procedure: For the rat dose of 0.927 mg/kg (2 umol/kg), the compounds were formulated in 20% DMA:80% sorensens buffer pH 5 at 1 umol/ml. Each formulation was dosed (2 mL/kg) to four male rats (250-300 g) which had free access to food. Blood samples were taken via the tail vein at 5 and 20 minutes, and 1 and 4 hours post dose from 2 rats, and at 10 and 40 minutes, and 2 and 6 hours from the other 2 rats. Terminal samples were taken at 12 hours from the first pair of rats and 24 hours from the second pair. The blood samples were diluted 1:1 with water prior to analysis.
(§1) A set of 10 calibration standards covering the concentration range (0.001 umol/L to 10 umol/L) were prepared by spiking blank matrix (1:1 blood:water). The samples and standards were extracted using a solid phase extraction plate, blown down under nitrogen, and then reconstituted in methanol:water (20:80). The samples were analysed using LC-MSMS and the results obtained were used to determine the area under the curve from time 0 to infinity [AUC0-inf (ug.hr/ml)], clearance [Cl (ml/min/kg)] and the steady state volume distribution [Vss (L/kg)] for each compound.

[2] = Clearance (pharmacokinetics) in dogs; assay type: in vivo; conditions: dog, whole blood, dose 0.927 mg/kg (2 umol/kg); for Vd: read-out: Vss
Procedure: For the dog dose of 0.927 mg/kg (2 umol/kg), the compounds were formulated in 10% DMSO:90% hydroxyl-propyl-β-cyclodextrin (25% w/v) in sorensens buffer pH 5 at 2 umol/ml. Each formulation was dosed (1 mL/kg) to a male and female dog (8-15 kg) which had been fasted overnight. Blood samples were taken via the jugular vein at 5, 10, 20 and 40 minutes, and 1, 2, 4, 6, 12 and 24 hours post dose. The blood samples were diluted 1:1 with water prior to anaylsis.
as §1

[3] = target: T1, human cytochrome P450 (CYP) 2C19 (Homo sapiens, UniProt P33261); assay: Cytochrome P450 Inhibition Assay, CYP 2C19; assay type: in vitro ADME; conditions: test compound 0.1-10 μM, substrate MFC; read-out: Ic50 2C19
T1 construct: made in house; host or cells: yeast (microsomal fraction)
Procedure: Cytochrome P450 Inhibition Assay
The inhibitory potential (IC50) of test compounds against 5 human cytochrome P450 (CYP) isoforms (1A2, 2C9, 2C19, 3A4 and 2D6) was assessed using an automated fluorescent end point in vitro assay modified from Crespi (Crespi and Stresser, J Pharmacol Toxicol Methods 2000, 44: 325-331). Microsomal subcellular fractions prepared from Yeast cell lines expressing each human CYP isoform were used as an enzyme source in this assay. The activity of the 5 major human CYPs was determined from the biotransformation of a number of coumarin substrates to fluorescent metabolites, in the presence of NADPH. […] Stock solutions of each CYP, with its respective substrate, were prepared in phosphate buffer pH 7.4 (see Table 1) and 178 μl was added to the well of a black solid, flat bottom, 300 μl 96 well microtitre plate (Corning Costar). […] After pre-incubating at 37° C. for 5 min the reactions were started with addition of NADPH (20 μl, concentration shown in Table 1). The final solvent content in each incubation was <=2% (1% from the test compound and a maximum of 1% from the substrate). The appropriate solvent controls and substrate blanks were included in each experiment to assess control activity and identify any inherent fluorescence due to the test compounds. In addition, known inhibitors of each CYP were included as positive controls (see Table 3 for inhibitor concentrations and expected IC50 ranges). The reactions were stopped at defined timepoints (see Table 1) by quenching with 100 μl of solvent (acetonitrile:0.5M Tris buffer 80:20 v/v). The plates were read on a fluorimeter (Spectrafluor Plus) at the appropriate excitation and emission wavelengths (listed in Table 2) and the percent activity, corrected for control, was plotted against the test compound concentration.

[4] = target: FGFR1 (Homo sapiens, UniProt P11362); assay: FGFR1 Kinase Assay - Caliper Echo Dosing; assay type: biochemical; conditions: 408 uM ATP, separate test occasions listed, read-out: IC50 (inhibition of FGFR1 kinase activity)
Procedure: FGFR1 Kinase Assay—Caliper Echo Dosing
To determine inhibition of FGFR1 activity, kinase assays were conducted using Caliper technology.
Kinase activity assays were performed in Greiner 384-well low volume plates, with a total reaction volume of 12 ul per well. Final concentration of FGFR1 active kinase in each reaction well was 7.2 nM. The substrate for each assay was a custom peptide with fluorescent tag (13 amino acids in length, […] with the fluorescene tag on the first K).
Compounds were dispensed directly in to assay plates using a Labcyte Echo 550 acoustic droplet ejection unit. […]
Assay plates were incubated at room temperature for 1.5 h, before the reaction was stopped with the addition of buffer [comprising: 100 mM HEPES—pH 7.5, 0.033% Brij-35 (Sigma Catalogue No. B4184), 0.22% Caliper Coating Reagent #3 (Caliper Life Sciences Catalogue No. 760050), 88 mM EDTA, 5% DMSO]. Stopped assay plates were then read using the Caliper LabChip® LC3000 (which uses microfludics to measure a shift in mobility between fluorescent labelled peptide and the FGFR1 kinase—phosphorylated form of this peptide).
In the assay, compounds were tested at a range of concentrations. […] Percentage inhibition at 1 uM, as expressed herein, is a calculated value based on the curve fit that was generated experimentally. […] This value is calculated using a standard curve fitting software package Origin™. […]

FGFR1, sequence (P11362 22-822): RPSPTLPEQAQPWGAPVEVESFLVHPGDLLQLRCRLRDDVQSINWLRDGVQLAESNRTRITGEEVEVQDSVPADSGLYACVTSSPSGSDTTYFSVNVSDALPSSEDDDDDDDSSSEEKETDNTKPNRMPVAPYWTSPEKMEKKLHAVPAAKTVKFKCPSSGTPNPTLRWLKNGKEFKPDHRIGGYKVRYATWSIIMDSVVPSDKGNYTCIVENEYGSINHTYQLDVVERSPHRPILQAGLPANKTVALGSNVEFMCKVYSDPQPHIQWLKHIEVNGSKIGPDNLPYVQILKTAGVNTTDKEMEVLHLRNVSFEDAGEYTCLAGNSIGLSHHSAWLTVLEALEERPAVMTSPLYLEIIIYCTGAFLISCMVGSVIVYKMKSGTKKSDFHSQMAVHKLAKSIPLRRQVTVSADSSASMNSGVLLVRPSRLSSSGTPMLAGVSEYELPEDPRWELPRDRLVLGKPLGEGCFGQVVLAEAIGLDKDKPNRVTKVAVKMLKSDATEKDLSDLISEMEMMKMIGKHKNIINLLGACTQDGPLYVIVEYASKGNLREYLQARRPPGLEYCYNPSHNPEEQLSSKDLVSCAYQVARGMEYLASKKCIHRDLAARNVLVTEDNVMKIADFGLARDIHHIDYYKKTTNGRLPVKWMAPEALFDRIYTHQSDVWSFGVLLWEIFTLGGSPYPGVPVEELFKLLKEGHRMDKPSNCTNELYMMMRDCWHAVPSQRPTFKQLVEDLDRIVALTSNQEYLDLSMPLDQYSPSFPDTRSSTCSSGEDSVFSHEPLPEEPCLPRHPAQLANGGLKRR
T1 sequence (P33261 whole entry): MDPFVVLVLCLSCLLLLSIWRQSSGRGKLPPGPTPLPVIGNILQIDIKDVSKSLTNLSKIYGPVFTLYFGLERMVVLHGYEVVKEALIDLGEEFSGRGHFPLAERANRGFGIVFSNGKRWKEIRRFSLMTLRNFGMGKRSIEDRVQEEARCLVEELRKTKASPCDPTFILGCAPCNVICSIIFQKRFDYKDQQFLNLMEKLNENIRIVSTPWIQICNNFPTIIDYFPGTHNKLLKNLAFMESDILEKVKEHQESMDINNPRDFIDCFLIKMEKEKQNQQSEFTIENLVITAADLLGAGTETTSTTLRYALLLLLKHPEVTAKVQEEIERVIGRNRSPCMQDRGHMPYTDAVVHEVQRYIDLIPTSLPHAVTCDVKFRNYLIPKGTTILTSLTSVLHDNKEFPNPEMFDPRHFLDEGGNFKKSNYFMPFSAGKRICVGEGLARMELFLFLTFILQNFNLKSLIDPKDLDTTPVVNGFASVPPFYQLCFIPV

| AUC(0-inf) [1] | clearance [1] | Vd [1] | AUC(0-inf) ([2]; female dogs) | clearance ([2]; female dogs) | Vd ([2]; female dogs) | AUC(0-inf) ([2]; male dogs) | clearance ([2]; male dogs) | Vd ([2]; male dogs) | IC50 [3] | IC50 [4] | Compound |
| --- | --- | --- | --- | --- | --- | --- | --- | --- | --- | --- | --- |
| 254 ng·h/mL | 60.9 mL/min/kg | 2.58 L/kg | 427 ng·h/mL | 36.2 mL/min/kg | 7.08 L/kg | 585 ng·h/mL | 26.4 mL/min/kg | 3.71 L/kg | > 10 µM | 0.74 nM | COc1cc(CCc2cc(NC(=O)c3ccc(N4CCN(C)[C@@H](C)C4)cc3)[nH]n2)cc(OC)c1 [Example 1a, (S)—N-(3-(3,5-Dimethoxyphenethyl)-1H-pyrazol-5-yl)-4-(3,4-dimethylpiperazin-1-yl)benzamide] |
| 473 ng·h/mL | 32.7 mL/min/kg | 1.74 L/kg | 1350 ng·h/mL | 11.5 mL/min/kg | 1.71 L/kg | 1240 ng·h/mL | 12.5 mL/min/kg | 6.55 L/kg | 8.01 µM | 1.1 nM and 0.64 nM and 0.76 nM | COc1cc(CCc2cc(NC(=O)c3ccc(N4CCN(C)[C@H](C)C4)cc3)[nH]n2)cc(OC)c1 [Example 1b, (R)—N-(3-(3,5-Dimethoxyphenethyl)-1H-pyrazol-5-yl)-4-(3,4-dimethylpiperazin-1-yl)benzamide] |
